The values below come from publication PMC10216605, “Developing In Vitro Models to Define the Role of Direct Mitochondrial Toxicity in Frequently Reported Drug-Induced Rhabdomyolysis” (Biomedicines, 2023).

A short description of data set [1]: FAERS analysis of reported rhabdomyolysis cases per suspect drug. As to conditions: for (%) of total rhabdomyolysis cases / Number of Rhabdomyolysis Cases / Number of Rhabdomyolysis Cases (n = 6583): FAERS 2004 to 31 March 2020; for (%) of total rhabdomyolysis cases: of 27,140 cases; for Number of Rhabdomyolysis Cases: total 27,140 rhabdomyolysis cases, some cases with more than one suspected drug; for ROR (reported odds ratio): rhabdomyolysis with suspected drug vs all other drugs in FAERS; for Number of Death Cases (n = 576): monotherapy rhabdomyolysis cases with fatal outcome; for (%) of monotherapy rhabdomyolysis cases: of 6583 cases; for Number of Rhabdomyolysis Cases (n = 6583): suspected drug reported as a single drug used (monotherapy).
Procedure: (§1) Due to the quarterly updating of the database by the FDA, the searches were performed using the term “rhabdomyolysis” on one occasion to ensure the data were extracted at that specified period. All individual files were downloaded and saved from this one timepoint to specify the analysis period used in this study. Further refinement was performed using Microsoft Excel to extract only cases where the suspect drug was reported as a monotherapy, using the generic name of the suspect drugs. To ensure data accuracy, any case reported by a consumer or company underwent further checks to ensure it had not been previously reported by a healthcare provider, by confirming that no duplication of case ID was present.

The next data set deals with L6 cells. In words: Acute metabolic switch assay (cellular ATP content, glucose vs galactose media) in L6 differentiated myotubes. As to conditions: for IC50-ATPglu/IC50-ATPgal: ratio ≥ 2 = mitotoxic. The method, then:
They were then seeded into collagen-coated wells (50 µg/mL in 0.02 M of acetic acid) at a density of 16,000 cells/100 μL/well (96 well plates) and 10,000 cells/100 μL/well (XF 96-well cell culture microplates). The cells were next incubated for 24 h in complete growth medium to promote adherence, after which the growth medium was removed and the cells washed twice with 1× HBSS. The L6 myoblasts were then cultured in differentiation medium consisting of high-glucose DMEM (25 mM) supplemented with L-glutamine (4 mM), sodium pyruvate (1 mM), HEPES (5 mM), and horse serum (2% v/v). Fresh differentiation medium was provided every 48 h for 7 days.
On the day of the assay, the media on the differentiated myotubes were replaced with either serum-free high-glucose (DMEM, 25 mM of glucose, 4 mM of L-glutamine, 1 mM of sodium pyruvate, and 5 mM of HEPES) or serum-free galactose (DMEM, 10 mM of galactose, 6 mM of L-glutamine, 1 mM of sodium pyruvate, and 5 mM of HEPES) media (100 µL) for 2 h (37 °C, 5% CO2). The glucose and galactose media were removed and replaced with drug-dosing solutions in either glucose or galactose media as appropriate, before incubation (2 h, 37 °C, 5% CO2). […] Vehicle control was included in each experiment.
The cellular ATP content was measured using a bioluminescence assay kit, alongside the concomitant measurement of protein using a bicinchoninic acid (BCA) assay kit to normalise ATP data to the total protein. Briefly, the cells were lysed using ATP lysis buffer (50 µL/well) and the plate was shaken (5 min). According to the manufacturer’s instructions, 40 µL of ATP reagent was added to each well containing 5 µL of cell lysate in a white 96-well plate. The […] luminescence signal was measured immediately using a plate reader (Varioskan, Thermo Scientific, Schaumburg, IL USA).

The conditions of data set [2]: human.
Procedure: as §1
[3] abbreviates: Rattus norvegicus, L6, 2 h, read-out: ATP IC50 Galactose.
Where [4] appears, read: Rattus norvegicus, L6, 2 h, read-out: ATP IC50 Glucose.

Where a name gives a salt, the structure may show the parent alone. Read-outs that look alike come from different tables or passages of the source.

For the compound `CC(=O)Nc1ccc(O)cc1` [Acetaminophen], in data set [1], the “(%) of total rhabdomyolysis cases” value turned out to be 1.7%, the “Number of Rhabdomyolysis Cases” value is given as 449 and the “ROR (reported odds ratio)” value is recorded as 0.3.
In the same order, the values of `Cc1nnc2n1-c1ccc(Cl)cc1C(c1ccccc1)=NC2` [Alprazolam] are 1.1%, 290 and 0.4.
For the compound `O=C1CCc2ccc(OCCCCN3CCN(c4cccc(Cl)c4Cl)CC3)cc2N1` [Aripiprazole], in data set [1], the “(%) of total rhabdomyolysis cases” value turned out to be 1.5%, the “Number of Rhabdomyolysis Cases” value was 419 and the “ROR (reported odds ratio)” value is recorded as 0.4.
On to `CC(=O)Oc1ccccc1C(=O)O` [Aspirin], for which, in data set [1], the “(%) of total rhabdomyolysis cases” value is given as 1.2%, the “Number of Rhabdomyolysis Cases” value was determined as 313 and the “ROR (reported odds ratio)” value turned out to be 0.2.
For orientation: IC50 means the concentration that gives 50% inhibition. As to `CC(C)c1c(C(=O)Nc2ccccc2)c(-c2ccccc2)c(-c2ccc(F)cc2)n1CC[C@@H](O)C[C@@H](O)CC(=O)O` [Atorvastatin acid], the IC50-ATPglu/IC50-ATPgal was ~1 (n/d) in the data set on L6 cells (L6 cells, 2 h exposure) and 1 with L6 cells (L6 cells, 2 h exposure, listed as atorvastatin acid). Moreover, the IC50 is over 300 µM in the data set with L6 cells (read-out: ATP IC50 Galactose, L6 cells, 2 h exposure, galactose serum-free media, mean ± S.D. (n = 3)) and over 300 µM in the data set with L6 cells (read-out: ATP IC50 Glucose, L6 cells, 2 h exposure, glucose serum-free media, mean ± S.D. (n = 3)).
Take `CC(C)c1c(C(=O)Nc2ccccc2)c(-c2ccccc2)c(-c2ccc(F)cc2)n1CC[C@@H](O)C[C@@H](O)CC(=O)O` [Atorvastatin]: in data set [1], the “(%) of total rhabdomyolysis cases” value is listed as 12.2%, the “Number of Rhabdomyolysis Cases” value is on record as 3307, the “Number of Death Cases (n = 576)” value is recorded as 169 and the “(%) of monotherapy rhabdomyolysis cases” value is given as 21.1%. In addition, in data set [1], the “ROR (reported odds ratio)” value stood at 4.3 and the “Number of Rhabdomyolysis Cases (n = 6583)” value (from here on “Number … (n = 6583)”) came out at 1386.
Turning to `CC[C@H]1OC(=O)[C@H](C)[C@@H](O[C@H]2C[C@@](C)(OC)[C@@H](O)[C@H](C)O2)[C@H](C)[C@@H](O[C@@H]2O[C@H](C)C[C@H](N(C)C)[C@H]2O)[C@](C)(OC)C[C@@H](C)C(=O)[C@H](C)[C@@H](O)[C@]1(C)O` [Clarithromycin], in data set [1], the “(%) of total rhabdomyolysis cases” value worked out at 1.6%, the “Number of Rhabdomyolysis Cases” value is given as 427 and the “ROR (reported odds ratio)” value is given as 1.2.
Turning to `CN1CCN(C2=Nc3cc(Cl)ccc3Nc3ccccc32)CC1` [Clozapine], in data set [1], the “(%) of total rhabdomyolysis cases” value was 1.1%, the “Number of Rhabdomyolysis Cases” value was 286, the “Number of Death Cases (n = 576)” value is 12 and the “(%) of monotherapy rhabdomyolysis cases” value is recorded as 1.8%. In addition, the “Number … (n = 6583)” value in data set [1] is given as 116.
For the compound `CCCCCCCCCC(=O)N[C@@H](Cc1c[nH]c2ccccc12)C(=O)N[C@H](CC(N)=O)C(=O)N[C@@H](CC(=O)O)C(=O)N[C@@H]1C(=O)NCC(=O)N[C@@H](CCCN)C(=O)N[C@@H](CC(=O)O)C(=O)N[C@H](C)C(=O)N[C@@H](CC(=O)O)C(=O)NCC(=O)N[C@H](CO)C(=O)N[C@@H]([C@H](C)CC(=O)O)C(=O)N[C@@H](CC(=O)c2ccccc2N)C(=O)O[C@@H]1C` [Daptomycin], the IC50-ATPglu/IC50-ATPgal with L6 cells (L6 cells, 2 h exposure) is reported as ~1 (n/d). In addition, the IC50-ATPglu/IC50-ATPgal in the data set on L6 cells (L6 cells, 2 h exposure, listed as daptomycin) is given as 1. Also, in the data set on L6 cells (setting [3]), the IC50 is over 100 µM. In the data set with L6 cells (setting [4]), the IC50 is over 100 µM. For the same compound, in data set [2], the “(%) of monotherapy rhabdomyolysis cases” value is listed as 3.5%, the “(%) of total rhabdomyolysis cases” value is given as 1.4%, the “Number of Rhabdomyolysis Cases” value stood at 380 and the “Number … (n = 6583)” value came out at 227. Moreover, the “ROR (reported odds ratio)” value in data set [2] is reported as 3.2. Moreover, the “Number of Death Cases (n = 576)” value in data set [1] is on record as 18.
Take `O=C1[C@H](CC[C@H](O)c2ccc(F)cc2)[C@@H](c2ccc(O)cc2)N1c1ccc(F)cc1` [Ezetimibe]: in the data set on L6 cells (L6 cells, 2 h exposure), the IC50-ATPglu/IC50-ATPgal is reported as ~1 (n/d). Further, the IC50-ATPglu/IC50-ATPgal in the data set with L6 cells (L6 cells, 2 h exposure, listed as ezetimibe) is listed as 1. Moreover, in the data set with L6 cells (setting [3]), the IC50 was over 300 µM. Moreover, the IC50 in the data set on L6 cells (setting [4]) was over 300 µM. Further, in data set [1], the “(%) of total rhabdomyolysis cases” value came out at 1.9%, the “Number of Rhabdomyolysis Cases” value is 501, the “Number of Death Cases (n = 576)” value is given as 6 and the “(%) of monotherapy rhabdomyolysis cases” value turned out to be 2.5%. Also, in data set [1], the “ROR (reported odds ratio)” value is recorded as 2.6 and the “Number … (n = 6583)” value was determined as 166.
Consider `NS(=O)(=O)c1cc(C(=O)O)c(NCc2ccco2)cc1Cl` [Furosemide], for which, in data set [1], the “(%) of total rhabdomyolysis cases” value came to 1.8%, the “Number of Rhabdomyolysis Cases” value worked out at 480 and the “ROR (reported odds ratio)” value is 0.8.
As for `Cc1ccc(C)c(OCCCC(C)(C)C(=O)O)c1` [Gemfibrozil], in data set [1], the “(%) of total rhabdomyolysis cases” value worked out at 1.6%, the “Number of Rhabdomyolysis Cases” value is recorded as 442 and the “ROR (reported odds ratio)” value amounted to 15.0. For the same compound, the “ROR (reported odds ratio)” value in data set [1] (listed as gemfibrozil) turned out to be 15.
As for `O=C(CCCN1CCC(O)(c2ccc(Cl)cc2)CC1)c1ccc(F)cc1` [Haloperidol], in data set [1], the “(%) of total rhabdomyolysis cases” value was found to be 1.1%, the “Number of Rhabdomyolysis Cases” value was determined as 310 and the “ROR (reported odds ratio)” value is 1.3.
For `Nc1nnc(-c2cccc(Cl)c2Cl)c(N)n1` [Lamotrigine], in that order: 1.2%, 314 and 0.3.
In the case of `CC[C@@H](C(N)=O)N1CCCC1=O` [Levetiracetam], the IC50-ATPglu/IC50-ATPgal in the data set with L6 cells (L6 cells, 2 h exposure) is recorded as ~1 (n/d). Also, the IC50-ATPglu/IC50-ATPgal in the data set on L6 cells (L6 cells, 2 h exposure, listed as levetiracetam) worked out at 1. Besides, the IC50 with L6 cells (setting [3]) was over 300 µM. Besides, in the data set with L6 cells (setting [4]), the IC50 was over 300 µM. Moreover, in data set [1], the “(%) of total rhabdomyolysis cases” value is given as 2.2%, the “Number of Rhabdomyolysis Cases” value stood at 588, the “Number of Death Cases (n = 576)” value is listed as 8 and the “(%) of monotherapy rhabdomyolysis cases” value stood at 5.9%. Further, in data set [1], the “ROR (reported odds ratio)” value worked out at 0.9 and the “Number … (n = 6583)” value is on record as 386.
Take `CN(C)C(=N)N=C(N)N` [Metformin]: in data set [1], the “(%) of total rhabdomyolysis cases” value is 1.8%, the “Number of Rhabdomyolysis Cases” value is 478 and the “ROR (reported odds ratio)” value turned out to be 0.4.
Turning to `Cc1cc2c(s1)Nc1ccccc1N=C2N1CCN(C)CC1` [Olanzapine], the “Number of Death Cases (n = 576)” value in data set [1] is recorded as 23.
On to `COc1ccc2[nH]c([S+]([O-])Cc3ncc(C)c(OC)c3C)nc2c1` (stereo not drawn) [Omeprazole], for which, in data set [1], the “(%) of total rhabdomyolysis cases” value turned out to be 1.3%, the “Number of Rhabdomyolysis Cases” value turned out to be 363 and the “ROR (reported odds ratio)” value worked out at 0.5.
Turning to `OCCOCCN1CCN(C2=Nc3ccccc3Sc3ccccc32)CC1` [Quetiapine], in data set [1], the “(%) of total rhabdomyolysis cases” value is 2.8%, the “Number of Rhabdomyolysis Cases” value was 761, the “Number of Death Cases (n = 576)” value stood at 26 and the “(%) of monotherapy rhabdomyolysis cases” value is 3.0%. Further, the “Number … (n = 6583)” value in data set [1] is on record as 199.
Take `CC(C)c1nc(N(C)S(C)(=O)=O)nc(-c2ccc(F)cc2)c1/C=C/[C@@H](O)C[C@@H](O)CC(=O)O` [Rosuvastatin]: the IC50-ATPglu/IC50-ATPgal with L6 cells (L6 cells, 2 h exposure) is ~1 (n/d). The IC50-ATPglu/IC50-ATPgal in the data set on L6 cells (L6 cells, 2 h exposure, listed as rosuvastatin) came to 1. For the same compound, the IC50 in the data set with L6 cells (setting [3]) was over 300 µM. Further, the IC50 in the data set on L6 cells (setting [4]) was over 300 µM. In data set [1], the “(%) of total rhabdomyolysis cases” value was determined as 7.4%, the “Number of Rhabdomyolysis Cases” value is listed as 2008, the “Number of Death Cases (n = 576)” value is on record as 47 and the “(%) of monotherapy rhabdomyolysis cases” value came out at 17.0%. Also, in data set [1], the “ROR (reported odds ratio)” value amounted to 2.9 and the “Number … (n = 6583)” value is given as 1122.
Turning to `CN[C@H]1CC[C@@H](c2ccc(Cl)c(Cl)c2)c2ccccc21` [Sertraline], in data set [1], the “(%) of total rhabdomyolysis cases” value is 1.3%, the “Number of Rhabdomyolysis Cases” value was found to be 347 and the “ROR (reported odds ratio)” value is 0.4.
In the case of `CCC(C)(C)C(=O)O[C@H]1C[C@@H](C)C=C2C=C[C@H](C)[C@H](CC[C@@H](O)C[C@@H](O)CC(=O)O)[C@H]21` [Simvastatin acid, Simvastatin hydroxy acid ammonium salt], the IC50-ATPglu/IC50-ATPgal in the data set with L6 cells (L6 cells, 2 h exposure) was ~1 (n/d); in the data set on L6 cells (L6 cells, 2 h exposure, listed as simvastatin acid), 1. Moreover, the IC50 with L6 cells (setting [3]) and in the data set on L6 cells (setting [4]) was over 300 µM in each case.
Turning to `COc1ccc(C(CN(C)C)C2(O)CCCCC2)cc1` (stereo not drawn) [Venlafaxine], in data set [1], the “(%) of total rhabdomyolysis cases” value came to 1.6%, the “Number of Rhabdomyolysis Cases” value is 425 and the “ROR (reported odds ratio)” value was found to be 0.5.
